Source: ChEMBL document CHEMBL3822355, “Synthesis and evaluation of substituted 4-(N-benzylamino)cinnamate esters as potential anti-cancer agents and HIV-1 integrase inhibitors” (Bioorg Med Chem Lett, 2016)

Tests used:
[1] = test system: HeLa; test: Anti-cancer activity against human HeLa cells assessed as reduction in cell viability after 72 hrs by WST-1 assay; assay type: functional, cell-based
[2] = test system: MDA-MB-231; test: Anti-cancer activity against human MDA-MB-231 cells assessed as reduction in cell viability after 72 hrs by WST-1 assay; assay type: functional, cell-based; conditions: MDA-MB-231, 72 h
[3] = Cytotoxicity against HEK293 cells assessed as cell viability at 100 uM after 48 hrs by resazurin assay; assay type: cell-based; conditions: human, read-out: Activity

Structure (SMILES) | IC50 [1] [µM] | IC50 [2] [µM] | viability at 48 h, 100 µM [3] [%]
COC(=O)/C=C/c1ccc(NCc2cc([N+](=O)[O-])ccc2O)cc1 | 16 | 17.4 | 108
COC(=O)/C=C/c1ccc(NCc2cc(Br)cc(Br)c2O)cc1 | 35.4 | 11.5 | 114
COC(=O)/C=C/c1ccc(NCc2cc(Br)ccc2O)cc1 | 7.82 | 109 | 98.1
COC(=O)/C=C/c1ccc(NCc2cccc(OC)c2O)cc1 | 3.04 | 73.7 | 114
COC(=O)/C=C/c1ccc(NCc2cc(Cl)cc(Cl)c2O)cc1 | 25.9 | 9.61 | 107
COC(=O)/C=C/c1ccc(NCc2cc(Cl)ccc2O)cc1 | 8.56 | 86.4 | 92.4
COC(=O)/C=C/c1ccc(NCc2ccc(O)c(O)c2)cc1 | 78.1 | 36.6 | 114
COC(=O)/C=C/c1ccc(NCc2ccccc2O)cc1 | 7.17 | 31.7 | 94.4
COC(=O)/C=C/c1ccc(NCc2cccc(O)c2O)cc1 | 68.2 | 32.6 | 82.3
CC(=O)O[C@H]1C(=O)[C@@]2(C)[C@H]([C@H](OC(=O)c3ccccc3)[C@]3(O)C[C@H](OC(=O)[C@H](O)[C@@H](NC(=O)c4ccccc4)c4ccccc4)C(C)=C1C3(C)C)[C@]1(OC(C)=O)CO[C@@H]1C[C@@H]2O [PACLITAXEL] | 0.0199 | – | –
